Like-named read-outs stand apart in the source and are kept apart here.
Assays:
Assay type in all cases: cell-based
Riva = assay: PROTAC compounds evaluated against lymphoma cell line Riva
Protocol: (§1) A library of PROTAC compounds was prepared according to the sequences depicted in FIGS. 1 and 2. These compounds were evaluated against three different lymphoma cell lines (Riva, Pfeiffer, and Granta-519): […]

Pfeiffer = assay: PROTAC compounds evaluated against lymphoma cell line Pfeiffer
Protocol: as §1

Granta-519 = assay: PROTAC compounds evaluated against lymphoma cell line Granta-519; settings: Granta-519 lymphoma cell line
Protocol: as §1

Row | IC50 (Riva) | IC50 (Pfeiffer) | IC50 (Granta-519) | IC50 (Pfeiffer; Homo sapiens) | IC50 (Granta-519; Homo sapiens) | Compound
1 | 605 nM | 343 nM | 439 nM |  |  | CC1CC(C)CN(S(=O)(=O)c2ccc3c(c2)C(=NO)c2cc(S(=O)(=O)N4CCN(C(=O)CCCCCCNc5cccc6c5C(=O)N(C5CCC(=O)NC5=O)C6=O)CC4)ccc2C3=NO)C1 (stereo not drawn) [RY-3-108]
2 | > 20000 nM | > 20000 nM | > 20000 nM |  |  | CC1CC(C)CN(S(=O)(=O)c2ccc3c(c2)C(=NO)c2cc(S(=O)(=O)N4CCN(C(=O)CCOCCOCCNc5cccc6c5C(=O)N(C5CCC(=O)NC5=O)C6=O)CC4)ccc2C3=NO)C1 (stereo not drawn) [RY-3-113]
3 | 797 nM | 564 nM | 399 nM |  |  | CC1CC(C)CN(S(=O)(=O)c2ccc3c(c2)C(=NO)c2cc(S(=O)(=O)N4CCN(C(=O)CCNc5cccc6c5C(=O)N(C5CCC(=O)NC5=O)C6=O)CC4)ccc2C3=NO)C1 (stereo not drawn) [RY-3-119]
4 | 560 nM | 647 nM | 496 nM |  |  | CC1CC(C)CN(S(=O)(=O)c2ccc3c(c2)C(=NO)c2cc(S(=O)(=O)N4CCN(C(=O)CCCCNc5cccc6c5C(=O)N(C5CCC(=O)NC5=O)C6=O)CC4)ccc2C3=NO)C1 (stereo not drawn) [RY-3-120]
5 | 1160 nM | 2500 nM | 1160 nM |  |  | CC1CC(C)CN(S(=O)(=O)c2ccc3c(c2)C(=NO)c2cc(S(=O)(=O)N4CCN(C(=O)CCCCCCCCCCNc5cccc6c5C(=O)N(C5CCC(=O)NC5=O)C6=O)CC4)ccc2C3=NO)C1 (stereo not drawn) [RY-3-121]
6 | > 20000 nM | > 20000 nM | > 20000 nM |  |  | CC1CC(C)CN(S(=O)(=O)c2ccc3c(c2)C(=NO)c2cc(S(=O)(=O)N4CCN(C(=O)CCOCCNc5cccc6c5C(=O)N(C5CCC(=O)NC5=O)C6=O)CC4)ccc2C3=NO)C1 (stereo not drawn) [RY-3-122]
7 | > 20000 nM | > 20000 nM | > 20000 nM |  |  | CC1CC(C)CN(S(=O)(=O)c2ccc3c(c2)C(=NO)c2cc(S(=O)(=O)N4CCN(C(=O)CCOCCOCCOCCNc5cccc6c5C(=O)N(C5CCC(=O)NC5=O)C6=O)CC4)ccc2C3=NO)C1 (stereo not drawn) [RY-3-123]
8 | > 20000 nM | > 20000 nM | > 20000 nM |  |  | CC1CC(C)CN(S(=O)(=O)c2ccc3c(c2)C(=NO)c2cc(S(=O)(=O)N4CC(C)CC(C)C4)ccc2C3=NOCCCNC(=O)CCCCCCCCCCNc2cccc3c2C(=O)N(C2CCC(=O)NC2=O)C3=O)C1 (stereo not drawn) [RY-3-124]
9 | 651 nM | 189 nM | 323 nM |  |  | CC1CC(C)CN(S(=O)(=O)c2ccc3c(c2)C(=NO)c2cc(S(=O)(=O)N4CC(C)CC(C)C4)ccc2C3=NOCCCNC(=O)CCNc2cccc3c2C(=O)N(C2CCC(=O)NC2=O)C3=O)C1 (stereo not drawn) [RY-3-127]
10 | 795 nM | 398 nM | 523 nM |  |  | CC1CC(C)CN(S(=O)(=O)c2ccc3c(c2)C(=NO)c2cc(S(=O)(=O)N4CC(C)CC(C)C4)ccc2C3=NOCCCNC(=O)CCCCNc2cccc3c2C(=O)N(C2CCC(=O)NC2=O)C3=O)C1 (stereo not drawn) [RY-3-128]
11 | 1350 nM | 554 nM | 1040 nM |  |  | CC1CC(C)CN(S(=O)(=O)c2ccc3c(c2)C(=NO)c2cc(S(=O)(=O)N4CC(C)CC(C)C4)ccc2C3=NOCCCNC(=O)CCOCCNc2cccc3c2C(=O)N(C2CCC(=O)NC2=O)C3=O)C1 (stereo not drawn) [RY-3-129]
12 | 929 nM | 355 nM | 530 nM |  |  | CC1CC(C)CN(S(=O)(=O)c2ccc3c(c2)C(=NO)c2cc(S(=O)(=O)N4CC(C)CC(C)C4)ccc2C3=NOCCCNC(=O)CCCCCCNc2cccc3c2C(=O)N(C2CCC(=O)NC2=O)C3=O)C1 (stereo not drawn) [RY-3-130]
13 | > 20000 nM | 1880 nM | > 20000 nM |  |  | CC1CC(C)CN(S(=O)(=O)c2ccc3c(c2)C(=NO)c2cc(S(=O)(=O)N4CC(C)CC(C)C4)ccc2C3=NOCCCNC(=O)CCOCCOCCNc2cccc3c2C(=O)N(C2CCC(=O)NC2=O)C3=O)C1 (stereo not drawn) [RY-3-131]
14 | > 20000 nM | > 20000 nM | > 20000 nM |  |  | CC1CC(C)CN(S(=O)(=O)c2ccc3c(c2)C(=NO)c2cc(S(=O)(=O)N4CC(C)CC(C)C4)ccc2C3=NOCCCNC(=O)CCOCCOCCOCCNc2cccc3c2C(=O)N(C2CCC(=O)NC2=O)C3=O)C1 (stereo not drawn) [RY-3-132]
15 | 86 nM |  |  | 175 nM | 94 nM | C[C@@H]1C[C@H](C)CN(S(=O)(=O)c2ccc3c(c2)C(=NO)c2cc(S(=O)(=O)N4C[C@H](C)C[C@H](C)C4)ccc2C3=NO)C1 [Tegavivint, tegavivint, reference compound]

Reference: patent publication US20260273073A1, “TRANSDUCIN BETA-LIKE PROTEIN 1 DEGRADERS” (Ohio State Innovation Foundation, priority 2023, published 2026)
